# Data: US6599914B2, “Inhibition of cytokine generation” (Schering Corporation, priority 2001, dated 2003)
# “Also recorded” adds a separate entry of the source.
# Tests used:
# endothelial cells = settings: in vitro; cited from earlier work
# IL-4 mRNA = settings: desloratadine 10 μM
# Procedure: Cultures for the analysis of IL-4 mRNA were performed in 1.5 ml polypropylene microcentrifuge tubes, as described above. […] Total RNA was isolated using the RNAzol protocol (Tel-test Inc., Friendswood, Tex.) after 2 hours incubation, which is the time that IL-4 message expression peaks using IgE-dependent activation (Schroeder, et al., J. Immunol.1997, Vol.158:5448-5454). Following isopropanol precipitation, the RNA was washed with 70% ethanol and dried under vacuum. Subsequently, the RNA was resuspended in 25 μl of diethipyrocarbonate (DEPC)-treated water and stored at −80° C. Reverse Transcription (RT) and polymerase chain reaction (PCR) were performed with serial dilutions of RNA as previously detailed (MacGlashan, et al., J. Immunol, 1994; Vol. 152:3006-3016; Schroeder, at al., J. Immunol., 1997, Vol. 158: 5448-5454) using the GeneAmp RNA PCR kit (Perkin-Elmer Cetus, Norwalk, Conn.). PCR products were visualized in 3% agrose gels using ethidium bromide staining.
# Total RNA was isolated after 2 h and used for dilutional RT-PCR analysis to compare message expression for IL-4 and the housekeeping gene, hypoxanthine phosphoribosyl transferase (HPRT) (panel a).
# For these experiments, we used a dilutional RT-PCR protocol to provide a semi-quantitative analysis.
# [1] = test system: seasonal allergic rhinitis patients; assay: Double-blinded, randomized clinical trials in seasonal allergic rhinitis patients
# Procedure: Efficacy endpoints in all the studies were Total Symptom Score, Total Nasal Symptom Score, Total Non-nasal Symptom Score, and Health Quality of Life (HQOL) analysis in efficacy trials. […] This parameter measures the total symptom relief by the patient after 24 hours before taking the next day dose.
# human basophils = settings: ionomycin 500 ng/ml; 0.1, 1.0 and 10 μM desloratadine; 4 hours
# Procedure: Mixed leukocyte suspensions containing basophils were prepared either using double-Percoll density centrifugation as described (Schroeder, et al., J. Immunol.,1994, Vol. 153: 1808, or by a combination of countercurrent elutriation and Percoll density centrifugation protocols (MacGlashan, et al., J. Immunol.,1994, Vol. 153:3006-3016). The percentages of basophils obtained using these protocols typically ranged between 5-50% and 10-30%, respectively, and were determined by counting Alcian blue positive and negative stained cells on a Spiers-Levy chamber (Gilbert and Ornstein, 1975). For some experiments, the basophils were additionally purified to >99.9% using a negative-selection protocol (Miltenyi Corp., Auburn, Calif.). […] For the analysis of IL-4 mRNA expression, cells in C-IMDM were cultured in autoclaved (RNase-free) 1.5 ml microcentrifuge tubes (see below), since this allowed for a more precise way to quantitatively isolate mRNA without the need for transferring cells from culture wells before extraction. […] Histamine, LTC4, and IL-4 were all measured in aliquots of culture supernatant taken at 4 hours. […] LTC4 was measured by an in-house RIA (MacGlashan, et al., J. Immunol. 1986, Vol.136:2231-2239). IL-4 protein was measured by a commercial ELISA (Biosource International). […]
# [2] = test system: human basophilic leukocyte cells; settings: in vitro; cited from earlier work
# basophilic cells = settings: relatively high concentrations; cited from earlier work
SMILES,histamine-induced release of IL-6 and IL-8 (endothelial cells),effect on expression of the housekeeping gene HPRT (IL-4 mRNA),reduction of nasal symptoms versus placebo ([1]; 5 mg),total symptom scores ([1]; 5 mg once daily),"AM NOW total symptom score, full 24 hour dosing interval ([1]; 5 mg to 20 mg dosage range)","differences in effectiveness across subgroups defined by gender, age, or race ([1]; 5 mg to 20 mg dosage range)",effect on histamine secretion induced by ionomycin (human basophils),IgE- and non-IgE-mediated histamine release [2],inhibition of IL-4 and IL-13 secretion (basophilic cells) [%]
Clc1ccc2c(c1)CCc1cccnc1C2=C1CCNCC1 [desloratadine],reduces,no effect; also recorded: unaffected,significantly (p<0.01) more effective than placebo,significantly reduced,Statistically significant (p<0.05) reductions,no significant differences,lack of an effect; also recorded: unaffected,inhibits,
CC(C)(C)c1ccc(C(O)CCCN2CCC(C(O)(c3ccccc3)c3ccccc3)CC2)cc1 (stereo not drawn) [terfenadine],,,,,,,,,50
